Reference: PubChem BioAssay AID504765 (Sanford-Burnham Center for Chemical Genomics, 2011)
Calls of active or inactive are those of the source. How the calls were made is not given here.

Target: glucose-6-phosphate dehydrogenase-6-phosphogluconolactonase (Plasmodium falciparum 3D7)
Assay: concentration-dependent PfGluPho enzyme inhibition – biochemical, fluorescence intensity, dose response (AID 504765)
Conditions: Recombinant PfG6PD enzyme, fluorescence intensity (NADPH)

## CN=c1nc(-c2ccccc2)n(-c2ccccc2)s1
  IC50: 4.82 µM

## O=C(COC(=O)c1ccc2c(c1[N+](=O)[O-])C(=O)c1ccccc1C2=O)NC1CC1
  IC50: 16.4 µM

## COc1cccc(/C=N/NC(=O)CSc2cccc3cccnc23)c1
  IC50: 5.46 µM

## Cc1cc(C)c2c(=O)n(CC(=O)Nc3cccc(Cl)c3C)sc2n1
  IC50: 5.51 µM

## O=c1[nH]c2ccccc2n2c(-c3ccccc3)nnc12
  IC50: 1.65 µM

## O=c1c2ccccc2sn1-c1ccc(Cl)cc1
  IC50: 2.83 µM

## [O-]/[N+](=C\c1ccco1)c1ccc(Cl)cc1
  IC50: 1.39 µM

## Cc1ccsc1/C=N\NC(=O)CC(=O)NCc1ccccc1
  IC50: 6.41 µM

## Cc1ccc(/C=C2\C(=O)NC(=S)N(c3ccccc3F)C2=O)s1
  IC50: inactive

## CCn1c2ccccc2c2nc3cc(S(=O)(=O)N4CCOCC4)ccc3nc21
  IC50: inactive

## CCn1c(=O)n(CC)c2cc(N3CCCC3)c(NC(=O)c3cccc(C)c3)cc21
  IC50: inactive

## CN1C(=O)CSc2ccc(NC(=O)N3CCc4ccccc43)cc21
  IC50: 15.2 µM

## Cc1no[n+]([O-])c1COc1cccc(/C=N/Nc2nncn2N)c1
  IC50: 6.7 µM

## NC1CCc2cc(O)c(O)cc2C1 (centres undefined)
  IC50: inactive

## Nc1c(O)cccc1C(=O)O
  IC50: 1.44 µM

## CCOc1ccccc1CNc1ccc(O)cc1
  IC50: 19.2 µM

## Cc1cc(C)nc(NC(N)=NCCc2ccccc2)n1
  IC50: 15 µM

## N#Cc1ccc(N=c2ssnc2Cl)cc1
  IC50: 13.8 µM

## COc1ccc(NC2CCCN(Cc3cccc4cnccc34)C2)cc1OC (centres undefined)
  IC50: inactive

## O=C(CCc1ccc(O)c(O)c1)N/N=C/c1cc2c(cc1[N+](=O)[O-])OCO2
  IC50: 14 µM

## O=C1C=CC(=O)N1c1ccc(N2CCCCC2)cc1
  IC50: 15.6 µM

## Cc1ccc(NC2=C(NC(=O)c3ccccc3)C(=O)c3ccccc3C2=O)cc1Cl
  IC50: 10.2 µM

## Cc1ccccc1OCC(=O)N/N=C/c1ccc(Sc2nc3ccccc3s2)o1
  IC50: 16.8 µM

## N#CC(C#N)=C1C=CC=CN1/C(=C\c1ccccc1Cl)C(=O)c1ccccc1
  IC50: 8.31 µM

## COc1ccc(CNC(=O)Cc2cn(C)c3ccccc23)c(OC)c1
  IC50: 6.8 µM

## Clc1ccc(N=c2ssnc2Cl)nc1
  IC50: inactive

## COc1cc(NC(C)CCc2ccccc2)cc(OC)c1OC (centres undefined)
  IC50: 2.02 µM

## O=C(CSc1nc2ccc(Cl)cc2[nH]1)NC1CCCc2ccccc21 (centres undefined)
  IC50: 15.6 µM

## Cc1cc(C)c2sc(NC(=O)C3=COCCO3)nc2c1
  IC50: 11 µM

## Cc1ccc2nc(SCC(=O)NC3CCCc4ccccc43)[nH]c2c1 (centres undefined)
  IC50: 9.6 µM

## COc1cccc2nc3cc(C)c(C)cc3nc12
  IC50: 4.69 µM

## COc1ccc(NC(C)C(=O)N/N=C/c2cc(Br)ccc2OC)cc1 (centres undefined)
  IC50: 8.77 µM

## COc1ccc(N2C(=O)/C(=C/c3cccs3)NC2=S)cc1
  IC50: inactive

## COc1ccc(OCc2nnc3n2N=C(c2ccccc2)C(CC(=O)O)S3)cc1 (centres undefined)
  IC50: inactive

## O=C(O)c1ccc(-n2c(-c3cc(-c4ccco4)[nH]n3)n[nH]c2=S)cc1
  IC50: inactive

## N#C/C(C(=O)Nc1ccc(Cl)cc1)=C(/S)Nc1ccccc1
  IC50: 1.89 µM

## O=C(NCCCN1CCOCC1)c1sc2cc([N+](=O)[O-])ccc2c1Cl
  IC50: 6.75 µM

## COc1ccc(/C=C/c2nc3ccccc3n2C)cc1
  IC50: 8.04 µM

## COc1ccc(C(=O)Nc2sc3c(c2C(=O)O)CC(C)(C)OC3)cc1
  IC50: 11 µM

## CC(=O)OCC1(C)CN(c2ccccc2)NC1=O (centres undefined)
  IC50: 5.19 µM

## COc1cc(NCc2ccccc2O)c2ncccc2c1
  IC50: inactive

## COc1cc(N)c2ncccc2c1OC
  IC50: 16.6 µM

## CN(C)c1cccc2c1c(NC(=O)c1ccc(F)cc1)nn2C
  IC50: 19.2 µM

## CN(C)c1ccc(C=c2c3cc(O)ccc3n3c2cc(-c2ccccc2)[n+]3C)cc1
  IC50: 9.89 µM

## Nn1c(SCC(=O)Nc2cccnc2Cl)nnc1-c1ccccc1
  IC50: inactive

## O=C(Nc1nnc(S(=O)(=O)N2CCCC2)s1)c1cccc([N+](=O)[O-])c1
  IC50: 4.17 µM

## COc1c(O)ccc2c1CN1CCc3cc4c(cc3C1C2)OCO4 (centres undefined)
  IC50: 15.5 µM

## COc1cc(N(C)C)ccc1C=c1c2ccccc2n2c1cc(-c1ccccc1)[n+]2C
  IC50: 9.08 µM

## CCS(=O)(=O)N1CCN(c2ccc([N+](=O)[O-])c(NC(C)c3ccccc3)c2)CC1 (centres undefined)
  IC50: 14.8 µM

## Cc1ccc(/C=C/C(=O)Nc2ccc([N+](=O)[O-])c(NC(=O)/C=C/c3ccc(C)o3)c2)o1
  IC50: 4.84 µM

## CC(C)c1nnc(NC(=O)c2sc3ccccc3c2Cl)s1
  IC50: 6.44 µM

## Cc1ccc(N2CC(C(=O)OCC(=O)c3ccc([N+](=O)[O-])cc3)CC2=O)cc1 (centres undefined)
  IC50: 8.7 µM

## Cc1nnc(N/N=C/c2ccc(-c3ccccc3F)o2)n1N
  IC50: 16.9 µM

## CNCc1ccccc1Sc1cc(O)ccc1O
  IC50: 2.23 µM

## O=C(Nc1ccc([N+](=O)[O-])cc1Cl)c1cc(Cl)ccc1O
  IC50: 13.7 µM

## Cc1ccc(/C=C/C(=O)NCCc2cccc(Cl)c2)o1
  IC50: 7.59 µM

## COC1=C(Br)C(=O)c2nc(C)ccc2C1=O
  IC50: 4.24 µM

## CN1/C(=C\C(=O)c2cccs2)Sc2ccccc21
  IC50: 7.44 µM

## Oc1ccc(C2C[C@H]3CC[C@@H]2C3)cc1O (some centres undefined)
  IC50: 5.71 µM

## CCn1c(N)c(C(=O)NC)sc1=S
  IC50: inactive

## O=S(c1ccccc1O)S(=O)c1ccccc1O (centres undefined)
  IC50: 4.89 µM

## O=C(Nc1nnc(S(=O)(=O)N2CCCCC2)s1)c1ccc(Cl)cc1
  IC50: 6.01 µM

## S=c1ncc2[nH]c(=S)[nH]c2[nH]1
  IC50: 4.41 µM

## CC(=O)Nc1cc2c(cc1[N+](=O)[O-])-c1ccccc1C2O (centres undefined)
  IC50: 20 µM

## O=C(CNC(=O)c1ccco1)OCC(=O)c1ccc([N+](=O)[O-])cc1
  IC50: 19.1 µM

## COC1=C(N)C(=O)c2nc(C)ccc2C1=O
  IC50: 6.3 µM

## c1ccc(-c2cn3c(n2)CCc2ccc4cccnc4c2-3)cc1
  IC50: 8.54 µM

## CCN1CCN(c2nc(C)nc3c2sc(=S)n3C)CC1
  IC50: 15.1 µM

## COc1ccc2nc3cc(Cl)ccc3c(Nc3ccc(O)c(CN4CCN(C)CC4)c3)c2c1
  IC50: inactive

## CCC(CO)[n+]1c(C)cc(/C=C2\Sc3ccccc3N2Cc2ccccc2)cc1C (centres undefined)
  IC50: 12.2 µM

## CCN(CC)c1ccc(C(=C2C=CC(=[N+](CC)CC)C=C2)c2ccc(N(CC)CC)cc2)cc1
  IC50: 10.3 µM

## O=S(=O)(Nc1ccc(Cl)cc1)c1ccc(N2CCOCC2)c(NC(=S)NCCN2CCOCC2)c1
  IC50: 15.1 µM

## CC1=C(O)C(=O)C=C2C1=CC=C1C2(C)CCC2(C)C3CC(C)(C(=O)O)CCC3(C)CCC12C (centres undefined)
  IC50: 16.7 µM

## CC(=O)Nc1ccc2sn(-c3ccccc3)c(=O)c2c1
  IC50: 2.53 µM

## O=C(COc1cccc2ccccc12)Nc1ccc(Cl)cc1C(=O)O
  IC50: 13.5 µM

## Cc1ccc(S(=O)(=O)C=CS(=O)(=O)c2ccc(C)cc2)cc1
  IC50: 6.65 µM

## Fc1cccc(Cl)c1CNc1ccc(N2CCCC2)cc1
  IC50: 4.06 µM

## CC1=CC(C)(C)Nc2ccc(OC(=O)CN3C(=O)CCC3=O)cc21
  IC50: 12 µM

## Cc1nnc(N/N=C\c2ccc(-c3cccc(C(=O)O)c3)o2)n1N
  IC50: 4.75 µM

## O=c1c2cc(C(F)(F)F)ccc2sn1-c1ccccc1
  IC50: 3.89 µM

## Clc1ccc2nc(-c3ccc(Br)s3)cn2c1
  IC50: 8.89 µM

## Cc1ccc(S(=O)(=O)Oc2cccc(/C=N/Nc3ccc(C(=O)O)cc3)c2)cc1
  IC50: 7.01 µM

## COc1cc(-c2cc(OC)c(O)c(OC)c2)cc(OC)c1O
  IC50: 8.29 µM

## Clc1ccc2nc(-c3ccc4c(c3)OCO4)cn2c1
  IC50: inactive

## O=[N+]([O-])c1ccc(Sc2cccc3cccnc23)c2cccnc12
  IC50: 16.5 µM

## COc1ccc(C(=O)Nc2cc(Cl)ccc2C(=O)O)cc1
  IC50: 15 µM

## C[c-]1[c-](C)[c-](C)[c-](C)[c-]1C.[Fe].c1cc2nccc(N3CCCC3)[c-]2c1 (centres undefined)
  IC50: inactive

## Cc1cc(C)c2c(=O)n(CC(=O)Nc3ccc(Cl)cc3)sc2n1
  IC50: 2.51 µM

## O=C(Cn1sc2ccccc2c1=O)Nc1ccc(Br)cc1
  IC50: 5.16 µM

## Cc1ccc(S(=O)(=O)Nc2nc(C)c(C(=O)N/N=C/c3ccccc3)s2)cc1
  IC50: 4.58 µM

## COc1cc(CNc2ccc(N3CCCC3)cc2)ccc1OCc1ccccc1F
  IC50: 2.39 µM

## Cc1cc(C(=O)O)ccc1-n1c(C)cc(C=C2C(=O)c3ccccc3C2=O)c1C
  IC50: 7.14 µM

## CN1CCN(C(=S)c2ccc([N+](=O)[O-])cc2)CC1
  IC50: inactive

## O=c1[nH]sc2cc(F)ccc12
  IC50: 9.86 µM

## Cc1ccc(S(=O)(=O)N(C)C)cc1NC(=O)CSc1nc2ncc(Cl)cc2[nH]1
  IC50: 12.1 µM

## CCn1c2ccccc2c2cc(/C=N/n3cn[nH]c3=S)ccc21
  IC50: 9.81 µM

## COc1ccc(/C=C/c2nc3ccccc3n2Cc2ccc(OC)c(OC)c2)cc1
  IC50: inactive

## CC(C)Sc1nnc(NC(=O)c2ccc3c(c2)OCO3)s1
  IC50: 4.21 µM

## CCc1ccccc1N1CSC2=C(C#N)C(c3ccccc3F)CC(=O)N2C1 (centres undefined)
  IC50: 9.2 µM

## CCCN1CCc2cc(O)cc3c2[C@H]1Cc1ccc(O)c(O)c1-3
  IC50: 10.8 µM

## O=c1c2ccccc2sn1-c1nccs1
  IC50: 1.69 µM

## Cc1ccc(NNS(=O)(=O)c2ccc(C)cc2)cc1
  IC50: 12.6 µM

## Cc1cc(O)c(C(C)C)cc1N=Cc1ccc(N(C)C)cc1
  IC50: 4.4 µM

## COc1cc(CNc2ccc3[nH]c(=O)[nH]c3c2)ccc1OCc1ccccc1
  IC50: inactive

## CCCn1cc(S(=O)(=O)CC(=O)Nc2ccc(OC)cc2OC)c2ccccc21
  IC50: 7.87 µM

## Nc1ccc(N(CCO)CCO)cc1
  IC50: 4.71 µM

## COc1cccc(/C=N/NC(=O)c2c(C)nc3ccc(Br)cn23)c1
  IC50: 2.86 µM

## CN(C)c1ncc(C2=C(Cl)C(=O)C(N3CCCC3)=C(Cl)C2=O)s1
  IC50: 3.32 µM

## O=C1Nc2cc(C(=O)NCCCN3CCCC3)ccc2S/C1=C/c1cccc(Cl)c1
  IC50: 17.9 µM

## CC(C)Cn1c([N+](=O)[O-])nc2c1c(=O)[nH]c(=O)n2C
  IC50: 14.3 µM

## Cc1nc(COC(=O)c2cc(O)c3ccccc3c2O)cs1
  IC50: 3.52 µM

## CCCCOc1ccc(Cc2n[nH]c(=S)n2N)cc1
  IC50: inactive

## COc1cc(CN2CCCC(C(=O)c3ccc4c5c(cccc35)CC4)C2)cc(OC)c1O (centres undefined)
  IC50: 3.44 µM

## O=C1C(c2cc(=O)c3ccccc3[nH]2)=C(O)c2ccccc21
  IC50: 8.25 µM

## Cc1cccc(-n2c(=S)[nH]c3sc4c(c3c2=O)CCc2ccccc2-4)c1
  IC50: inactive

## Nc1[nH]c(=O)[nH]c(=O)c1N=Cc1ccccc1
  IC50: 3.29 µM

## Cc1cc(C)c2c(=N)c3ccccc3n(CCCCCCCCn3c4ccccc4c(=N)c4c(C)cc(C)nc43)c2n1
  IC50: 10.1 µM

## O=C(Cn1sc2ccccc2c1=O)Nc1ccc(F)cc1
  IC50: 2.56 µM

## Cc1ccc(Cl)cc1NC1=C/C(=N\S(=O)(=O)c2cccs2)c2ccccc2C1=O
  IC50: inactive
